Measurements published in the COVID Moonshot data (paper PMC7615835).
“And” between values parts separate entries of the source, which are not always exact repeats. Equal values may be shown once.

What was measured:
[1] = human; plasma
[2] = rat; in vivo; po; 10.0 mg/kg
[3] = human; liver_microsomes
[4] = mouse; plasma
[5] = mouse; hepatocytes
[6] = cattle; serum
[7] = not given; remark: listed apart in the source
[8] = mouse; liver_microsomes
[9] = dog; liver_microsomes
[10] = rat; plasma
[11] = in vivo, iv
[12] = biological target: SARS-CoV-2 Main Protease (SARS-CoV-2) (UniProt P0DTD1)
[13] = pampa
[14] = a549
[15] = tested on: SARS-CoV-2 (SARS-CoV-2); details: helaace2

## O=C(Nc1cncc2ccccc12)[C@@H]1CCNc2cc(Cl)c(Cl)cc21 (stereo in doubt)
other
  logD: 3.8
[1]
  fraction unbound: 0.049 (2×) and 0.023
  recovery: 105%
[2]
  AUC(0-inf): 257 ng·h/mL
  AUC(0-t): 247 ng·h/mL
  CL/F: 653 mL/min/kg
  Cmax: 40.4 ng/mL
  MRT last: 397 min
  Tmax: 120 min
  bioavailability: 10.2% (2×) and 11.9%
  half-life: 255 min
[3]
  microsomal CLint: 40 µL/min/mg
[4]
  fraction unbound: 0.039
  recovery: 98.1%
[5]
  half-life: 83 min
[6]
  fraction unbound: 0.584
  recovery: 70.6%
[7]
  logD: 3.4 and 3.54
[8]
  half-life: 9.3 min
  microsomal CLint: 290 µL/min/mg and 186 µL/min/mg
[9]
  half-life: 27.9 min
  microsomal CLint: 62.2 µL/min/mg
[10]
  fraction unbound: 0.033 (2×) and 0.029
  recovery: 98.4%
[11]; rat, 0.5 mg/kg
  AUC(0-inf): 198 ng·h/mL and 170 ng·h/mL
  C0: 559 ng/mL and 452 ng/mL
  MRT inf: 33.1 min and 29.5 min
  MRT last: 26.2 min and 27.9 min
  Vd: 1.46 L/kg and 1.94 L/kg
  clearance: 49.6 mL/min/kg and 60.7 mL/min/kg
[11]; rat, 1.0 mg/kg
  AUC(0-inf): 220 ng·h/mL and 249 ng·h/mL
  C0: 324 ng/mL and 410 ng/mL
  MRT inf: 44.1 min and 46 min
  MRT last: 44.8 min and 42.7 min
  Vd: 3.49 L/kg and 2.99 L/kg
  clearance: 75.9 mL/min/kg and 68 mL/min/kg
  half-life: 38.2 min and 32.5 min
[12]
  IC50: < 50 nM and 47.4 nM

## N#CC1(CS(=O)(=O)N2Cc3ccc(Cl)cc3C(C(=O)Nc3cncc4ccccc34)C2)CNC1 (stereo not given)
other
  logD: 1.8
[11]; rat, 0.5 mg/kg
  AUC(0-inf): 101 ng·h/mL and 104 ng·h/mL
  AUC(0-t): 99.7 ng·h/mL and 102 ng·h/mL
  C0: 417 ng/mL and 369 ng/mL
  MRT inf: 24.5 min and 22.7 min
  MRT last: 20.7 min and 22.2 min
  Vd: 1.55 L/kg and 1.68 L/kg
  clearance: 68.6 mL/min/kg and 67.4 mL/min/kg
  half-life: 20.8 min and 21.5 min
[12]
  IC50: 169 nM

## COc1ccc(Cl)cc1OCCNC(=O)c1cc(=O)[nH]c2cccc(OC)c12
[13]
  Papp: 109 ×10⁻⁶ cm/s
[12]
  IC50: 874 nM

## COc1ccc2cncc(NC(=O)C3(OC)CCOc4ccc(Cl)cc43)c2c1 (stereo not given)
other
  logD: 3.4
[11]; mouse, 0.5 mg/kg
  AUC(0-inf): 98.2 ng·h/mL and 108 ng·h/mL
  C0: 246 ng/mL and 252 ng/mL
  MRT inf: 41.5 min and 34.1 min
  MRT last: 30.8 min and 28.1 min
  Vd: 3.52 L/kg and 2.67 L/kg
  clearance: 84.9 mL/min/kg and 77.9 mL/min/kg
  half-life: 35.6 min and 29 min
[12]
  IC50: 116 nM and 120 nM

## O=C(Nc1cncc2ccncc12)[C@H]1CCOc2ccc(Cl)cc21 (stereo in doubt)
other
  logD: 2.6
[4]
  fraction unbound: 0.219
  recovery: 102%
[7]
  logD: 2.59 and 2.5
[8]
  half-life: 7.8 min
  microsomal CLint: 223 µL/min/mg
[11]; mouse, 0.5 mg/kg
  AUC(0-inf): 113 ng·h/mL and 122 ng·h/mL
  AUC(0-t): 112 ng·h/mL and 118 ng·h/mL
  C0: 525 ng/mL and 604 ng/mL
  MRT inf: 13.7 min and 14.6 min
  MRT last: 13 min
  Vd: 1.01 L/kg and 1 L/kg
  clearance: 73.5 mL/min/kg and 68.7 mL/min/kg
  half-life: 9.48 min and 11.9 min
[14]
  CC50: > 9990 nM

## COCCS(=O)(=O)N1Cc2ccc(Cl)cc2C(C(=O)Nc2cncc3ccccc23)C1 (stereo not given)
other
  logD: 2.3
[12]
  IC50: 211 nM and 214 nM

## CN(C)C(=O)CNCC1(C(=O)Nc2cncc3ccccc23)CCOc2ccc(Cl)cc21 (stereo not given)
other
  logD: 2.7
[12]
  IC50: 603 nM

## Cc1cccc(/C=N/Nc2cc(N3CCOCC3)nc(OCCc3ccccn3)n2)c1
[15]
  EC50: < 10 nM and 14.7 nM and 22.9 nM
  EC90: 158 nM and 70.8 nM and 82.9 nM

## O=C(Nc1cncc2cc(CO)ccc12)C1CCOc2ccc(Cl)cc21 (stereo not given)
other
  logD: 2.2
[11]; rat, 0.5 mg/kg
  AUC(0-inf): 187 ng·h/mL and 325 ng·h/mL
  AUC(0-t): 182 ng·h/mL and 321 ng·h/mL
  C0: 518 ng/mL and 742 ng/mL
  MRT inf: 36.2 min and 29.3 min
  MRT last: 26 min and 34 min
  Vd: 1.31 L/kg and 0.947 L/kg
  clearance: 44.6 mL/min/kg and 26.8 mL/min/kg
  half-life: 27.7 min
[12]
  IC50: 1400 nM
